Test results published in patent publication US9316633B2, “Methods for identifying inhibitors of solute transporters” (The Regents of the University of California, priority 2006, dated 2016).

How the values were obtained:
RBCs from wild-type mice = assay: Osmotic water permeability by stopped-flow light scattering, RBCs from wild-type mice; assay type: cell-based, mouse
Protocol: RBC urea and water permeabilities were assayed by stopped-flow light scattering using a Hi-Tech Sf-51 instrument (Wiltshire, UK). For measurement of urea permeability, dilutions of whole blood (human or mouse; see Example 1) in PBS (hematocrit: approximately 0.5%) were incubated with test compounds for 5 min and then subjected to a 250-mM inwardly directed gradient of urea. After an initial osmotic shrinking phase, the kinetics of increasing cell volume caused by urea influx were measured as the time-course of 90° scattered light intensity at 530 nm, with increasing cell volume resulting in reduced scattered light intensity. As a positive control, 0.7 mM phloretin was added to the RBC suspension prior to stopped-flow experiments. Measurements of water permeability were carried out similarly, with sucrose (cell-impermeant) used instead of urea to establish a 250-mM osmotic gradient. As a positive control, HgCl2 (0.3 mM) was added to the RBC suspension prior to stopped-flow measurements. Osmotic water permeability coefficients (Pf) were computed from light scattering data as described (van Hoek et al., J. Biol. Chem. 267:18267-69 (1992)).
This example describes chemical knock-out of UT-B by UT-B inhibitors in RBCs and the effect on UT-B-facilitated water transport. […] Osmotic water permeability was measured by stopped-flow light scattering in RBCs from wild-type and AQP1-null mice as shown in FIG. 8A. […] AQP1-null RBCs had greater than 5-fold reduced Pf compared to wild-type RBCs.

rat UT-A1 = target: T1, rat UT-A1 (Rattus norvegicus, UniProt Q62668); assay: UT-A1-mediated urea flux across stably transfected MDCK cell layers; assay type: cell-based; settings: 10 μM forskolin; 0.7 mM phloretin
T1 construct: expressed in transfected cells
T1 sequence (Q62668 1-929): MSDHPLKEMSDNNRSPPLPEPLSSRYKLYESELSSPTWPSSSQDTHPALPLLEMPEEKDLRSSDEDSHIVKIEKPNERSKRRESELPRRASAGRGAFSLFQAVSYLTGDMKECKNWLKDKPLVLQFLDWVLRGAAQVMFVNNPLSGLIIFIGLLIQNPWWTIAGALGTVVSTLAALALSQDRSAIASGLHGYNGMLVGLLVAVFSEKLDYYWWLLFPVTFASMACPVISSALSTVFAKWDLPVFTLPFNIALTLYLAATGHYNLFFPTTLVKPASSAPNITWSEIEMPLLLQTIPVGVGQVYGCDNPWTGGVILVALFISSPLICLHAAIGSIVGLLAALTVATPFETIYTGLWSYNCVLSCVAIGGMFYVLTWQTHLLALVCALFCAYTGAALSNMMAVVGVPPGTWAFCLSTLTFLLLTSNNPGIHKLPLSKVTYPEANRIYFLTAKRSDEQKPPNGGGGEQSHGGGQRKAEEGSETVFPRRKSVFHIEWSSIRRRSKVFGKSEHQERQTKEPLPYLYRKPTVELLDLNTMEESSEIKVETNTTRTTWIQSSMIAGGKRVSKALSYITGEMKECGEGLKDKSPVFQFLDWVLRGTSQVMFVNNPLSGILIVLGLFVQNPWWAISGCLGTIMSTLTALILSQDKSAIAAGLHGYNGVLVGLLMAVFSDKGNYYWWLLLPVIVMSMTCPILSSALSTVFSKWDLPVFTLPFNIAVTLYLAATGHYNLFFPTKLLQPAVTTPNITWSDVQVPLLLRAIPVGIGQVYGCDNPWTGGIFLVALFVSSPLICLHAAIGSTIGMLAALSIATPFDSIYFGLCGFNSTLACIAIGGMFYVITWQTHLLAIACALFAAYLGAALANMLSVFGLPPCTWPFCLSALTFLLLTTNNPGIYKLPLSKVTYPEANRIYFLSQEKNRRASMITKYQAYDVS
Protocol: Concentration-inhibition studies were performed to study the effect of the active mouse UT-B inhibitors on urea transport by UT-A. The amino acid sequences of UT-B and UT-A urea transporter isoforms share significant similarity. The cells used in these studies were MDCK cells that expressed rat UT-A1. MDCK-UT-A1-expressing cells were grown on collagen-coated porous filters until they were electrically tight, at which point 15 mM urea was introduced into buffer bathing the basolateral cell surface. […]
UT-A1-facilitated urea flux in the basolateral-to-apical direction across unstimulated and forskolin-stimulated MDCK-UT-A1 cell layers was measured in response to a 15-mM urea gradient. […] Five μL samples of apical fluid were collected at specified times during incubation at 37° C., and urea concentration was determined using a commercial kit based on chromogenic urea complexation at 520-nm wavelength (Quantichrom™ Urea Assay Kit, BioAssay Systems, Hayward, Calif.). […] Aforsk, and Aphlor were averaged absorbance values (at 520 nm) for cultures treated with forskolin and forskolin+phloretin, respectively, and Atest were values from cultures treated with forskolin+ test compound.

urea transporter (UT) = settings: previously available UT inhibitors; cited from earlier work
UT-B = target: T2, UT-B (Homo sapiens, UniProt Q13336); assay: RBC lysis assay, human RBCs loaded with acetamide; assay type: cell-based; settings: 0.7 mM phloretin; control approximately 1.6 M
T2 construct: the indicator cells are red blood cells that endogenously express the UT-B urea transporter; endogenous in cells; host or cells: human red blood cells (whole venous blood, single donor)
T2 sequence (Q13336 1-389): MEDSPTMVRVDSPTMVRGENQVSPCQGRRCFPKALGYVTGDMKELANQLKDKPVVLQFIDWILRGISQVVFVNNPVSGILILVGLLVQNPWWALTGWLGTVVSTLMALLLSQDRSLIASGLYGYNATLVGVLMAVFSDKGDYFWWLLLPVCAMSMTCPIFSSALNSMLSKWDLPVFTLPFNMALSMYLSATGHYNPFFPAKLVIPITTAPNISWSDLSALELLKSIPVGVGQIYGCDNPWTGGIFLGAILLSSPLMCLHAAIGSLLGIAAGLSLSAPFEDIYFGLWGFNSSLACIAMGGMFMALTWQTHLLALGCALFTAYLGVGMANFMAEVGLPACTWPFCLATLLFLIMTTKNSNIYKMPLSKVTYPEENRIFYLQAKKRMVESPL

O=C(CCc1ccc(O)cc1)c1c(O)cc(O)cc1O [phloretin, reference compound]
effect on water transport (RBCs from wild-type mice): little effect
change in Pf (RBCs from wild-type mice; 0.7 mM): small but significant reduction
effect on UT-A1-facilitated urea transport (rat UT-A1): inhibited
concentration exhibiting activity as UT inhibitor (urea transporter (UT)): > 0.5 mM
acetamide concentration at fifty percent lysis (UT-B): approximately 1.1 M
